Results reported in patent US20120252796A1, “COMPOUNDS FOR THE TREATMENT OF DYSLIPIDEMIA AND RELATED DISEASES” (priority 2009, published 2012).
One block for each compound: values may come before it.

Legend:
PCSK9 [1] = molecular target: T1, PCSK9 (Homo sapiens, UniProt Q8NBP7); test: PCSK9-LDLR in vitro Binding Assay (ELISA); conditions: for inhibition at 5 µM: Concentration 5 μM
Experimental: The PCSK9-LDLR in vitro Binding Assay is a quantitative solid phase binding assay between PCSK9 and recombinant LDLR. Plates were pre-coated with a recombinant LDLR-AB domain, which binds PCSK9. Test compound at different concentration was added to the PCSK9 and added to LDLR immobilized on the wells. The amount of bound PCSK9 is measured by binding it with biotinylated anti-His-tag monoclonal antibody, followed by binding with horseradish peroxidase conjugated streptavidin substrate. The color was quantified by ELISA reader at […] which reflects the relative amount of PCSK9 that binds to LDLR in presence and absence of the inhibitor. EC50 values were calculated by nonlinear regression analysis using graph pad prism software. Each concentration point represents values in duplicates.
Target sequence in this assay (Q8NBP7 153-692): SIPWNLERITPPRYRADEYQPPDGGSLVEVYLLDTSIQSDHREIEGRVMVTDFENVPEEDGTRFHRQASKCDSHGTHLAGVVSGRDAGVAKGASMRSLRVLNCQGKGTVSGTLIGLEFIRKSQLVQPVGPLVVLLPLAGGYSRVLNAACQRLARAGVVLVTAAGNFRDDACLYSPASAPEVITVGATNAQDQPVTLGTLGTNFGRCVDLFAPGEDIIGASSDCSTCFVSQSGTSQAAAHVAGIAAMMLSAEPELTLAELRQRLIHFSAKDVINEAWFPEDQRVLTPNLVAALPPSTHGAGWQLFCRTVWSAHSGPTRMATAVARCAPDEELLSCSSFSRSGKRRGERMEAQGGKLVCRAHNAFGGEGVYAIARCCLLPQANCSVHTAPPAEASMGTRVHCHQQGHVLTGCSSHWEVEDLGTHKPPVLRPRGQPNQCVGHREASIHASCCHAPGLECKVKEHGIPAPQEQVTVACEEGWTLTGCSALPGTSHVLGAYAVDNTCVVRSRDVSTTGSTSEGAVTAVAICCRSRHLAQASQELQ
Target sequence in this assay (Q8NBP7 31-152 partner limits assumed): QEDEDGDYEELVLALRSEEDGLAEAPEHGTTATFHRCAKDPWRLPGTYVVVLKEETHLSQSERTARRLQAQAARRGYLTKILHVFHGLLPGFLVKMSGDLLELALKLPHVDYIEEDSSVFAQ

PCSK9 [2] = molecular target: T1, PCSK9; test: SPR binding studies (BIACORE3000); conditions: 25° C., phosphate buffer pH 7.4; compounds run at 10 nM, 100 nM and 1 micro mole, concentration of the value not stated
Experimental: Instrumentation: BIACORE3000 from GE Life Sciences was used and the Interaction analysis was performed at 25° C.
Buffers: phosphate buffer pH 7.4 supplied by Biacore supplemented with 0.01% dimethyl sulfoxide (DMSO) was used as running buffer during the assay.
Immobilization of Ligand: Sensor chip CM5 was used for analysis. The sensor chip consists of a carboxymethyl-modified dextran polymer linked to a gold-covered glass support. The ligand was diluted to 10 micro gram/ml in 10 mM sodium acetate, pH5.0 and immobilized to the sensor chip, using amine coupling. Running buffer without DMSO was used during immobilization. The surface was activated by injecting a solution containing 0.2M N-ethyl-N′-dimethyl aminopropyl-carbodiimide (EDC) and 50 mM N-hydroxy succinimide (NHS). The system was set for Aim for immobilization of about 1000 RU and the surface was blocked by injecting 1 Mehanolamine at pH 8.5. Then the surface was washed with 50 mM NaOH by injecting two 30 second-pulses to remove off non covalently bound ligand and to stabilize the baseline (automated procedure). Activated dextran was used as a reference surface. To ensure highest sensitivity the SPR Detector response was normalized before running the assay. By calibrating the detector at various light intensities under Conditions of total internal reflection (automated procedure). Solvent correction for DMSO was also carried to minimize the error in data.
Assay Design: A binding assay was set up for different compounds at three different concentrations (10 nM, 100 nM and 1 micro mole), and were injected over the reference and Ligand flow cells at a flow rate of 30 micro liter/min. Each cycle consisted of a 1-min waiting period for monitoring of the baseline stability and 3 minute injection of compound with a 5 minute Undisturbed dissociation phase, and the surface was regenerated with 50 mM NaoH solution. Compound responses in the reference flow cell were subtracted with that of ligand and a solvent correction run was carried in between and the binding potential of the compounds was reported as relative response units (RU).
Target sequence in this assay (Q8NBP7 153-692): as the sequence (Q8NBP7 153-692) above

Compound: Cc1oc(-c2ccccc2)nc1CC1COC(C)(C(=O)NCC(=O)N2CCOCC2)OC1 (stereo not shown) [Example 19, 2-methyl-5-c-((5-methyl-2-phenyloxazol-4-yl)methyl)-N-(2-morpholino-2-oxoethyl)-1,3-dioxane-2-carboxamide]
% Inhibition PCSK9 (PCSK9 [1]; Concentration 10 μM): 23% | % Inhibition PCSK9 (PCSK9 [1]; Concentration 100 μM): 25% | Relative response (RU) (PCSK9 [2]): 14.1 RU

Compound: Cc1ccc(-c2nc(CC3COC(C)(C(=O)NO)OC3)c(C)o2)cc1 (stereo not shown) [Example 59, N-hydroxy-2-methyl-5-((5-methyl-2-(p-tolyl)oxazol-4-yl)methyl)-1,3-dioxane-2-carboxamide]
inhibition at 1 µM (PCSK9 [1]; Concentration 1 μM): 26% | inhibition at 10 µM (PCSK9 [1]; Concentration 10 μM): 27% | inhibition at 100 µM (PCSK9 [1]; Concentration 100 μM): 61% | Relative response (RU) (PCSK9 [2]): 1.36 RU

Compound: Cc1ccc(-n2nc(C(C)(C)C)cc2CC2COC(C)(C(=O)NO)OC2)cc1 (stereo not shown) [Example 99, N-(hydroxy)-5-c-((3-(tert-butyl)-1-(p-tolyl)-1H-pyrazol-5-yl)methyl)-2-methyl-1,3-dioxane-2-carboxamide]
% Inhibition PCSK9 (PCSK9 [1]; Concentration 10 μM): 5% | % Inhibition PCSK9 (PCSK9 [1]; Concentration 100 μM): 32%

Compound: Cc1ccc(-c2nc(CC3COC(C)(C(=O)NOCc4ccccc4)OC3)c(C)o2)cc1 (stereo not shown) [Example 56, N-benzyloxy-2-methyl-5-((5-methyl-2-(p-tolyl)oxazol-4-yl)methyl)-1,3-dioxane-2-carboxamide]
inhibition at 5 µM (PCSK9 [1]): 6% | inhibition at 10 µM (PCSK9 [1]; Concentration 10 μM): 17%

Compound: Cc1oc(-c2ccccc2)nc1CC1COC(C)(C(=O)NCC(=O)NCC2CCOCC2)OC1 (stereo not shown) [Example 25, 2-methyl-5-c-((5-methyl-2-phenyloxazol-4-yl)methyl)-N-(2-oxo-2-(((tetrahydro-2H-pyran-4-yl)methyl)amino)methyl)-1,3-dioxane-2-carboxamide]
% Inhibition PCSK9 (PCSK9 [1]; Concentration 10 μM): 15% | % Inhibition PCSK9 (PCSK9 [1]; Concentration 100 μM): 16%

Compound: Cc1oc(-c2ccccc2)nc1CC1COC(C)(C(=O)NCCC(=O)N2CCS(=O)(=O)CC2)OC1 (stereo not shown) [Example 29, N-(3-(1,1-dioxidothiomorpholino)-3-oxopropyl)-2-methyl-5-c-((5-methyl-2-phenyloxazol-4-yl)methyl)-1,3-dioxane-2-carboxamide]
% Inhibition PCSK9 (PCSK9 [1]; Concentration 10 μM): 8% | % Inhibition PCSK9 (PCSK9 [1]; Concentration 100 μM): 12%

Compound: Cc1ccc(-c2nc(CC3COC(C)(C(=O)NCC4CCOCC4)OC3)c(C)o2)s1 (stereo not shown) [Example 74, 2-methyl-5-c-((5-methyl-2-(5-methylthiophen-2-yl)oxazol-4-yl)methyl)-N—((tetrahydro-2H-pyran-4-yl)methyl)-1,3-dioxane-2-carboxamide]
% Inhibition PCSK9 (PCSK9 [1]; Concentration 1 μM, 1 µM): 4% | % Inhibition PCSK9 (PCSK9 [1]; Concentration 10 μM, 10 µM): 15% | % Inhibition PCSK9 (PCSK9 [1]; Concentration 100 μM, 100 µM): 27%

Compound: Cc1oc(-c2ccccc2)nc1CC1COC(C)(C(=O)NCC2CCOCC2)OC1 (stereo not shown) [Example 9, 2-methyl-5-c-((5-methyl-2-phenyloxazol-4-yl)methyl)-N—((tetrahydro-2H-pyran-4-yl)methyl)-1,3-dioxane-2-carboxamide]
% Inhibition PCSK9 (PCSK9 [1]; Concentration 10 μM): 15% | % Inhibition PCSK9 (PCSK9 [1]; Concentration 100 μM): 12%

Compound: Cc1oc(-c2ccccc2)nc1CCC1COC(C)(C(=O)N2CCN(C)CC2)OC1 (stereo not shown) [Example 43, (2-methyl-5-c-(2-(5-methyl-2-phenyloxazol-4-yl)ethyl)-1,3-dioxan-2-yl)(4-methylpiperazin-1-yl)methanone]
% Inhibition PCSK9 (PCSK9 [1]; Concentration 10 μM): 8% | % Inhibition PCSK9 (PCSK9 [1]; Concentration 100 μM): 10%

Compound: (2-methyl-5-c-(2-(5-methyl-2-phenyloxazol-4-yl)ethyl)-1,3-dioxan-2-yl)(piperidin-1-yl)methanone [Example 44]
% Inhibition PCSK9 (PCSK9 [1]; 10 µM): 14% | % Inhibition PCSK9 (PCSK9 [1]; 100 µM): 25%

Compound: Cc1oc(-c2ccccc2)nc1CC1COC(C)(C(=O)NCCC(=O)N2CCOCC2)OC1 (stereo not shown) [Example 26, 2-methyl-5-c-((5-methyl-2-phenyloxazol-4-yl)methyl)-N-(3-morpholino-3-oxopropyl)-1,3-dioxane-2-carboxamide]
Relative response (RU) (PCSK9 [2]): 10.3 RU

Compound: CC(=O)C(Cc1ccccc1)NC(=O)C1(C)OCC(CCc2nc(-c3ccccc3)oc2C)CO1 (stereo not shown) [Example 54, 2-methyl-5-(2-(5-methyl-2-phenyloxazol-4-yl)ethyl)-N-(3-oxo-1-phenylbutan-2-yl)-1,3-dioxane-2-carboxamide]
inhibition at 10 µM (PCSK9 [1]; Concentration 10 μM): 21% | inhibition at 100 µM (PCSK9 [1]; Concentration 100 μM): 29%

Compound: Cc1oc(-c2ccccc2)nc1CCC1COC(C)(C(=O)N2CCS(=O)(=O)CC2)OC1 (stereo not shown) [Example 46, (1,1-dioxidothiomorpholino)(2-methyl-5-c-(2-(5-methyl-2-phenyloxazol-4-yl)ethyl)-1,3-dioxan-2-yl)methanone]
% Inhibition PCSK9 (PCSK9 [1]; Concentration 10 μM): 12% | % Inhibition PCSK9 (PCSK9 [1]; Concentration 100 μM): 18%

Compound: Cc1oc(-c2ccccc2)nc1CC1COC(C)(C(=O)NCC(=O)N2CCCCC2)OC1 (stereo not shown) [Example 22, 2-methyl-5-c-((5-methyl-2-phenyloxazol-4-yl)methyl)-N-(2-oxo-2-(piperidin-1-yl)ethyl)-1,3-dioxane-2-carboxamide]
% Inhibition PCSK9 (PCSK9 [1]; Concentration 10 μM): 25% | % Inhibition PCSK9 (PCSK9 [1]; Concentration 100 μM): 17%

Compound: CC1(C(=O)NO)OCC(CCCn2c3ccccc3c3ccccc32)CO1 (stereo not shown) [Example 96, 5-c-(3-(9H-carbazol-9-yl)propyl)-N-hydroxy-2-methyl-1,3-dioxane-2-carboxamide]
% Inhibition PCSK9 (PCSK9 [1]; Concentration 10 μM): 10%

More lines, now with the values ahead:

% Inhibition PCSK9 (PCSK9 [1]; Concentration 1 μM, 1 µM): 22% | % Inhibition PCSK9 (PCSK9 [1]; Concentration 10 μM, 10 µM): 30% | % Inhibition PCSK9 (PCSK9 [1]; Concentration 100 μM, 100 µM): 44% | Relative response (RU) (PCSK9 [2]): 17.29 RU
Compound: Cc1oc(-c2ccncc2)nc1CC1COC(C)(C(=O)NCC2CCOCC2)OC1 (stereo not shown) [Example 85, 2-methyl-5-t-((5-methyl-2-(pyridin-4-yl)oxazol-4-yl)methyl)-N—((tetrahydro-2H-pyran-4-yl)methyl)-1,3-dioxane-2-carboxamide]

% Inhibition PCSK9 (PCSK9 [1]; Concentration 10 μM): 14% | % Inhibition PCSK9 (PCSK9 [1]; Concentration 100 μM): 21%
Compound: Cc1oc(-c2ccccc2)nc1CCC1COC(C)(C(=O)NCC2CCOCC2)OC1 (stereo not shown) [Example 38, 2-methyl-5-c-(2-(5-methyl-2-phenyloxazol-4-yl)ethyl)-N—((tetrahydro-2H-pyran-4-yl)methyl)-1,3-dioxane-2-carboxamide]

inhibition at 5 µM (PCSK9 [1]): 25% | inhibition at 10 µM (PCSK9 [1]; Concentration 10 μM): 30% | inhibition at 100 µM (PCSK9 [1]; Concentration 100 μM): 32%
Compound: Cc1oc(-c2ccccc2)nc1CC1COC(C)(C(=O)NOCc2ccccc2)OC1 (stereo not shown) [Example 1, N-(benzyloxy)-2-methyl-5-((5-methyl-2-phenyloxazol-4-yl)methyl)-1,3-dioxane-2-carboxamide]

% Inhibition PCSK9 (PCSK9 [1]; Concentration 1 μM, 1 µM): 18% | % Inhibition PCSK9 (PCSK9 [1]; Concentration 10 μM): 19% | % Inhibition PCSK9 (PCSK9 [1]; Concentration 100 μM, 100 µM): 19%
Compound: Cc1oc(-c2ccccc2)nc1CCC1COC(C)(C(=O)NO)OC1 (stereo not shown) [Example 35, N-hydroxy-2-methyl-5-c-(2-(5-methyl-2-phenyloxazol-4-yl)ethyl)-1,3-dioxane-2-carboxamide]

inhibition at 1 µM (PCSK9 [1]; Concentration 1 μM): 11% | inhibition at 10 µM (PCSK9 [1]; Concentration 10 μM): 26% | inhibition at 100 µM (PCSK9 [1]; Concentration 100 μM): 35%
Compound: Cc1ccc(-c2nc(CC3COC(C)(C(=O)N4CCOCC4)OC3)c(C)o2)cc1 (stereo not shown) [Example 65, (2-methyl-5-((5-methyl-2-(p-tolyl)oxazol-4-yl)methyl)-1,3-dioxan-2-yl)(morpholino)methanone]

inhibition at 5 µM (PCSK9 [1]): 11% | inhibition at 100 µM (PCSK9 [1]; Concentration 100 μM): 25% | inhibition at 110 µM (PCSK9 [1]; Concentration 110 μM): 20%
Compound: Cc1oc(C(C)(C)C)nc1CC1COC(C)(C(=O)NO)OC1 (stereo not shown) [Example 72, 5-((2-(tert-butyl)-5-methyloxazol-4-yl)methyl)-N-hydroxy-2-methyl-1,3-dioxane-2-carboxamide]

% Inhibition PCSK9 (PCSK9 [1]; Concentration 10 μM, 10 µM): 10% | % Inhibition PCSK9 (PCSK9 [1]; Concentration 100 μM, 100 µM): 15%
Compound: Cc1oc(-c2ccncc2)nc1CC1COC(C)(C(=O)NCC(=O)NCC2CCOCC2)OC1 (stereo not shown) [Example 88, 2-methyl-5-c-((5-methyl-2-(pyridin-4-yl)oxazol-4-yl)methyl)-N-(2-oxo-2-(((tetrahydro-2H-pyran-4-yl)methyl)amino)ethyl)-1,3-dioxane-2-carboxamide]

% Inhibition PCSK9 (PCSK9 [1]; Concentration 10 μM): 10% | % Inhibition PCSK9 (PCSK9 [1]; Concentration 100 μM): 35%
Compound: Cc1oc(-c2ccccc2)nc1CCC1COC(C)(C(=O)NCC(=O)N2CCN(C)CC2)OC1 (stereo not shown) [Example 51, 2-methyl-5-c-(2-(5-methyl-2-phenyloxazol-4-yl)ethyl)-N-(2-(4-methylpiperazin-1-yl)-2-oxoethyl)-1,3-dioxane-2-carboxamide]

% Inhibition PCSK9 (PCSK9 [1]; Concentration 100 μM): 12%
Compound: Cc1oc(-c2ccccc2)nc1CC1COC(C)(C(=O)N2CCSCC2)OC1 (stereo not shown) [Example 16, (2-methyl-5-c-((5-methyl-2-phenyloxazol-4-yl)methyl)-1,3-dioxan-2-yl)(thiomorpholino)methanone]

inhibition at 1 µM (PCSK9 [1]; Concentration 1 μM): 38% | inhibition at 10 µM (PCSK9 [1]; Concentration 10 μM): 38% | inhibition at 100 µM (PCSK9 [1]; Concentration 100 μM): 42%
Compound: Cc1oc(-c2ccccc2)nc1CCC1COC(C)(C(=O)NCC(=O)N2CCOCC2)OC1 (stereo not shown) [Example 47, 2-methyl-5-(2-(5-methyl-2-phenyloxazol-4-yl)ethyl)-N-(2-morpholino-2-oxoethyl)-1,3-dioxane-2-carboxamide]
